This note sets out measurements from ChEMBL document CHEMBL1129697, “Synthesis and anticonvulsant evaluation of a series of (R)- and (S)-N-Cbz--aminoglutarimide and succinimide” (Bioorg Med Chem Lett, 1996).

For orientation: TD50 means the dose at which the toxic effect under study appears in half of the subjects. A high value points to lower toxicity. The ED50 is the midpoint of the dose-response relation.

The nature of series [1]: Compound was tested for neurotoxic activity in male mice using rotarod test. The series is classed as ADME. The following applies: mouse, in vivo.
Series [2] has as its system Mus musculus. Description: Compound was tested for anticonvulsant activity in male mice by pentylenetetrazole (80 mg/kg, sc) induced seizure test. In kind it is functional.
The nature of series [3]: Compound was tested for anticonvulsant activity in male mice using maximal electric shock seizure test; Protective index = TD50/ED50. In kind it is ADME. As to conditions: mouse, read-out: PI.
Series [4] is described as follows: Compound was tested for anticonvulsant activity in male mice by pentylenetetrazole (80 mg/kg, sc) induced seizure test.; Protective index = TD50/ED50. In kind it is ADME, organism-based. The following applies: mouse, in vivo, read-out: PI.
The species named for series [5] is Mus musculus. Nature of the series: Compound was tested for anticonvulsant activity in male mice using maximal electric shock seizure test. In kind it is functional.
The species named for series [6] is Mus musculus. Nature of the series: Compound was tested for anticonvulsant activity in male mice using maximal electric shock seizure test; No effect. In kind it is functional, organism-based.
Series [7] concerns Mus musculus. Nature of the series: Compound was tested for anticonvulsant activity in male mice by pentylenetetrazole (80 mg/kg, sc) induced seizure test.; No effect. In kind it is functional, organism-based.
Series [8] is described as follows: Compound was tested for anticonvulsant activity in male mice using maximal electric shock seizure test.; Protective index = TD50/ED50. The series is classed as ADME. As to conditions: mouse, read-out: PI.

Calls of active or inactive are those of the source. No cut-off for these calls is given here.

Take `CN1C(=O)C[C@H](NC(=O)OCc2ccccc2)C1=O`: in series [1], the TD50 worked out at 118 mg/kg. The ED50 in series [2] worked out at 113 mg/kg; in series [5], 61.2 mg/kg. Moreover, the selectivity ratio in series [3] was found to be 1.9; in series [4], 1.

`CN1C(=O)OC(C)(C)C1=O` [TRIMETHADIONE] yielded a TD50 in series [1] of 1070 mg/kg. The 50% effective dose (ED50) in series [2] was 250 mg/kg; in series [5], 704 mg/kg. Also, the results for the selectivity ratio in series [3] and in series [4] were 1.5 and 4.3, respectively.

Consider `CCCC(CCC)C(=O)O` [VALPROIC ACID], for which the ED50 stood at 149 mg/kg in series [2] and 272 mg/kg in series [5].

`CCC1(C)CC(=O)NC1=O` (stereo not drawn) [ETHOSUXIMIDE]: the ED50 in series [2] amounted to 130 mg/kg. Moreover, in series [6], the ED50 result is “inactive”. In series [4], the selectivity ratio is 3.4.

In series [1], `O=C1CC[C@H](NC(=O)OCc2ccccc2)C(=O)N1` yielded a TD50 of 130 mg/kg. Moreover, the values for the ED50 in series [2] and in series [5] were 42.5 mg/kg and 43.1 mg/kg, respectively. For the same compound, the selectivity ratio in series [3] worked out at 3; in series [4], 3.1.

In series [1], `O=C1C[C@@H](NC(=O)OCc2ccccc2)C(=O)N1` showed a TD50 of 178 mg/kg. The ED50 in series [2] worked out at 110 mg/kg; in series [5] it was 125 mg/kg. Besides, the selectivity ratio in series [3] is 1.4; in series [4] it was 1.6.

Take `CN1C(=O)CC[C@H](NC(=O)OCc2ccccc2)C1=O`: the TD50 in series [1] came out at 62.5 mg/kg. Moreover, the ED50 in series [2] is 12.5 mg/kg; in series [5], 36.1 mg/kg. Further, the values for the selectivity ratio in series [3] and in series [4] were 1.7 and 5, respectively.

In series [1], `O=C1CC[C@@H](NC(=O)OCc2ccccc2)C(=O)N1` showed a TD50 of 122 mg/kg. In addition, the values for the ED50 in series [2] and in series [5] were 46.9 mg/kg and 56.3 mg/kg, respectively. For the same compound, the selectivity ratio in series [3] worked out at 2.2; in series [4], 2.6.

Turning to `O=C1NC(=O)C(c2ccccc2)(c2ccccc2)N1`, in series [7], the ED50 entry was “inactive”.

For the compound `CN1C(=O)CC(C)(c2ccccc2)C1=O` (stereo not drawn) [METHSUXIMIDE], the TD50 in series [1] came to 130 mg/kg. In addition, the median effective dose (ED50) turned out to be 34.5 mg/kg in series [2] and 42.6 mg/kg in series [5]. For the same compound, the selectivity ratio was 3.1 in series [3] and 3.7 in series [4].

Regarding `CCC1(c2ccccc2)C(=O)NC(=O)NC1=O` [PHENOBARBITAL], the values for the ED50 in series [2] and in series [5] were 13.1 mg/kg and 21.8 mg/kg, respectively.

`CN1C(=O)C[C@@H](NC(=O)OCc2ccccc2)C1=O` had a TD50 in series [1] of 167 mg/kg. The ED50 in series [2] stood at 82.5 mg/kg; in series [5] it was 52.5 mg/kg. Besides, the selectivity ratio turned out to be 3.2 in series [3] and 2 in series [4].

As to `O=C1C[C@H](NC(=O)OCc2ccccc2)C(=O)N1`, the TD50 in series [1] was 161 mg/kg. For the same compound, the results for the 50% effective dose (ED50) in series [2] and in series [5] were 78.1 mg/kg and 103 mg/kg, respectively. For the same compound, the selectivity ratio was found to be 1.6 in series [3] and 2.1 in series [4].

With `CN1C(=O)CC[C@@H](NC(=O)OCc2ccccc2)C1=O`, the TD50 in series [1] stood at 120 mg/kg. Also, the results for the selectivity ratio in series [8] and in series [4] were 2.5 and 4.9, respectively. Also, the ED50 in series [2] stood at 24.4 mg/kg; in series [5] it was 47.5 mg/kg.
